The structures appear in SMILES notation.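 All cell lines were grown in 96-well plates and treated with compound for 48 hours. GI50 marks 50% less growth. Definition used: TGI = concentration required for complete inhibition of growth.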

Some test systems named below: HT29 colon; RPMI-8226 leukemia; HOP-62 NSCLC; TK-10 renal; SN12C renal; UACC-62 melanoma; KM12 colon; EKVX NSCLC; SK-OV-3 ovarian; K-562 leukemia.
What all share (assay): NCI anticancer screen, dose series, 48 h

In the case of `CCN1CCC[C@H]1c1cc(O)c2c(c1OC)C[C@H]1C[C@H]3[C@H](N)C(=O)C(C(N)=O)=C(O)[C@@]3(O)C(=O)C1=C2O`, the GI50 in the test on HT29 colon is 0.112 µM; with RPMI-8226 leukemia, 0.041 µM; in the test on HOP-62 NSCLC, 0.0517 µM; with TK-10 renal, 0.0626 µM; in the test with SN12C renal, 0.0682 µM; in the test on UACC-62 melanoma, 0.0668 µM. Moreover, the GI50 is 0.0998 µM in the test with KM12 colon, 0.203 µM in the test with EKVX NSCLC, 0.032 µM in the test on SK-OV-3 ovarian and 0.0599 µM with K-562 leukemia. Besides, the TGI in the test on HT29 colon came out at 5.43 µM; in the test on RPMI-8226 leukemia, 0.454 µM; in the test with HOP-62 NSCLC, 1.67 µM; in the test on TK-10 renal it was 2.42 µM; in the test with SN12C renal, 1.5 µM; in the test on UACC-62 melanoma it was 1.3 µM. The TGI with KM12 colon was 13.2 µM; in the test on EKVX NSCLC, 3.54 µM; with SK-OV-3 ovarian it was 0.215 µM; in the test with K-562 leukemia, over 100 µM.
Turning to `Nc1ccc2c(c1)C(=O)c1ccc(F)cc1-2`, the TGI with HT29 colon, with RPMI-8226 leukemia, with HOP-62 NSCLC, with TK-10 renal, with SN12C renal and in the test with UACC-62 melanoma was over 100 µM in each case. For the same compound, the TGI in the test with KM12 colon, with EKVX NSCLC, in the test on SK-OV-3 ovarian and in the test with K-562 leukemia was over 100 µM throughout.
Consider `O=C(CCc1nnc2s/c(=C\c3ccccc3)c(=O)n12)Nc1cc(Cl)ccc1Cl`, for which the TGI in the test on HT29 colon, in the test with RPMI-8226 leukemia, in the test with HOP-62 NSCLC, with TK-10 renal, in the test on SN12C renal and in the test with UACC-62 melanoma was over 100 µM each time. The TGI in the test with KM12 colon, with EKVX NSCLC, with SK-OV-3 ovarian and in the test with K-562 leukemia was over 100 µM each time.
On to `C/C(=N\NC(=O)CC(=O)Nc1ccc(C)cc1)c1cc2ccccc2oc1=O`, for which the TGI with HT29 colon, in the test on RPMI-8226 leukemia, in the test with HOP-62 NSCLC, with TK-10 renal, with SN12C renal and with UACC-62 melanoma was over 100 µM in each case. The TGI in the test on KM12 colon, with EKVX NSCLC, in the test on SK-OV-3 ovarian and in the test on K-562 leukemia was over 100 µM each time.
For `CN(C)CC(C(=O)c1ccccc1)c1ccccc1` (stereo not drawn), the GI50 was 0.662 µM in the test on HT29 colon; 2.08 µM with RPMI-8226 leukemia; 11.3 µM in the test on HOP-62 NSCLC; 1.3 µM in the test on TK-10 renal; 1.57 µM with SN12C renal; 2.05 µM with UACC-62 melanoma. Also, the GI50 in the test with KM12 colon is 1.74 µM; with EKVX NSCLC, 10.2 µM; in the test with SK-OV-3 ovarian it was 2.62 µM; in the test on K-562 leukemia it was 0.483 µM. In addition, the TGI in the test with HT29 colon came out at 2.15 µM; in the test with RPMI-8226 leukemia, 7.49 µM; with HOP-62 NSCLC, 23.5 µM; in the test on TK-10 renal, 2.67 µM; in the test on SN12C renal, 3.35 µM; in the test with UACC-62 melanoma it was 7 µM. Also, the TGI was 3.83 µM with KM12 colon, 27.1 µM in the test on EKVX NSCLC, 7.77 µM in the test with SK-OV-3 ovarian and 10.1 µM with K-562 leukemia.
For the compound `COc1ccc(/C=C/C(=O)c2sc(N)nc2C)cc1`, the TGI with HT29 colon, in the test on RPMI-8226 leukemia, in the test on HOP-62 NSCLC, in the test with TK-10 renal, in the test on SN12C renal and with UACC-62 melanoma was over 100 µM each time. Further, the TGI in the test on KM12 colon, with EKVX NSCLC, in the test with SK-OV-3 ovarian and in the test with K-562 leukemia was over 100 µM in each case.
Regarding `COc1cccc(Nc2nc(NNC(=O)Cc3ccccc3)nc(NNC(=O)c3ccncc3)n2)c1`, the TGI in the test with HT29 colon, in the test on RPMI-8226 leukemia, in the test with HOP-62 NSCLC, with TK-10 renal, in the test with SN12C renal and with UACC-62 melanoma was over 100 µM in each case. Also, the TGI in the test with KM12 colon, with EKVX NSCLC, with SK-OV-3 ovarian and in the test on K-562 leukemia was over 100 µM throughout. Further, the GI50 in the test on RPMI-8226 leukemia was over 100 µM; in the test with HOP-62 NSCLC, over 100 µM; with TK-10 renal it was over 100 µM; in the test with SN12C renal, over 100 µM; in the test on UACC-62 melanoma, 36 µM; in the test with EKVX NSCLC, over 100 µM. The GI50 in the test with SK-OV-3 ovarian and in the test with K-562 leukemia was over 100 µM throughout.
As for `Cc1cccc(CN(C)c2ccc(CO)c(Cl)c2)c1`, the GI50 is 11.9 µM in the test with HT29 colon; 14.4 µM with RPMI-8226 leukemia; 7.41 µM in the test on HOP-62 NSCLC; 0.267 µM in the test with TK-10 renal; 15 µM in the test with SN12C renal; 0.301 µM with UACC-62 melanoma. Further, the GI50 with KM12 colon was 22.5 µM; in the test with EKVX NSCLC it was 22.6 µM; in the test on SK-OV-3 ovarian, 12.6 µM; with K-562 leukemia it was 8.76 µM. Also, the TGI is over 55.3 µM with HT29 colon; over 69.3 µM in the test on RPMI-8226 leukemia; 40.6 µM in the test with HOP-62 NSCLC; 1.56 µM in the test on TK-10 renal; 48.9 µM in the test on SN12C renal; 2.96 µM with UACC-62 melanoma. Also, the TGI was 72.4 µM with KM12 colon, 90.1 µM in the test with EKVX NSCLC, 46.8 µM in the test with SK-OV-3 ovarian and over 100 µM in the test on K-562 leukemia.
On to `COc1c(OC(C)=O)cc2c(OC(C)=O)c1CC(C)CC(OC)C(O)C(C)/C=C(\C)C(OC(N)=O)C(OC)/C=C\C=C(/C)C(=O)N2` (stereo not drawn), for which the TGI in the test with HT29 colon was over 100 µM; with RPMI-8226 leukemia, over 80.9 µM; with HOP-62 NSCLC, over 100 µM; in the test on TK-10 renal, over 100 µM; with SN12C renal, over 100 µM; in the test on UACC-62 melanoma it was over 100 µM. Besides, the TGI in the test with KM12 colon is over 100 µM; with EKVX NSCLC it was over 100 µM; in the test on SK-OV-3 ovarian, over 100 µM; in the test with K-562 leukemia, over 62.6 µM.
